In patent US20260138961A1, “MODULATORS OF MITOCHONDRIAL DNA REPLICATION” (Pretzel Therapeutics, Inc., priority 2022, published 2026):

Each molecule was assayed against T1, wild type human POLγ (POLγA:WT) (Homo sapiens, UniProt P54098) (assay: DNA polymerization assay, wild type POLγ). Settings: 100 μM dNTP, read-out: WT AC50 (μM) at 100 μM.
T1 sequence (P54098 1-1239): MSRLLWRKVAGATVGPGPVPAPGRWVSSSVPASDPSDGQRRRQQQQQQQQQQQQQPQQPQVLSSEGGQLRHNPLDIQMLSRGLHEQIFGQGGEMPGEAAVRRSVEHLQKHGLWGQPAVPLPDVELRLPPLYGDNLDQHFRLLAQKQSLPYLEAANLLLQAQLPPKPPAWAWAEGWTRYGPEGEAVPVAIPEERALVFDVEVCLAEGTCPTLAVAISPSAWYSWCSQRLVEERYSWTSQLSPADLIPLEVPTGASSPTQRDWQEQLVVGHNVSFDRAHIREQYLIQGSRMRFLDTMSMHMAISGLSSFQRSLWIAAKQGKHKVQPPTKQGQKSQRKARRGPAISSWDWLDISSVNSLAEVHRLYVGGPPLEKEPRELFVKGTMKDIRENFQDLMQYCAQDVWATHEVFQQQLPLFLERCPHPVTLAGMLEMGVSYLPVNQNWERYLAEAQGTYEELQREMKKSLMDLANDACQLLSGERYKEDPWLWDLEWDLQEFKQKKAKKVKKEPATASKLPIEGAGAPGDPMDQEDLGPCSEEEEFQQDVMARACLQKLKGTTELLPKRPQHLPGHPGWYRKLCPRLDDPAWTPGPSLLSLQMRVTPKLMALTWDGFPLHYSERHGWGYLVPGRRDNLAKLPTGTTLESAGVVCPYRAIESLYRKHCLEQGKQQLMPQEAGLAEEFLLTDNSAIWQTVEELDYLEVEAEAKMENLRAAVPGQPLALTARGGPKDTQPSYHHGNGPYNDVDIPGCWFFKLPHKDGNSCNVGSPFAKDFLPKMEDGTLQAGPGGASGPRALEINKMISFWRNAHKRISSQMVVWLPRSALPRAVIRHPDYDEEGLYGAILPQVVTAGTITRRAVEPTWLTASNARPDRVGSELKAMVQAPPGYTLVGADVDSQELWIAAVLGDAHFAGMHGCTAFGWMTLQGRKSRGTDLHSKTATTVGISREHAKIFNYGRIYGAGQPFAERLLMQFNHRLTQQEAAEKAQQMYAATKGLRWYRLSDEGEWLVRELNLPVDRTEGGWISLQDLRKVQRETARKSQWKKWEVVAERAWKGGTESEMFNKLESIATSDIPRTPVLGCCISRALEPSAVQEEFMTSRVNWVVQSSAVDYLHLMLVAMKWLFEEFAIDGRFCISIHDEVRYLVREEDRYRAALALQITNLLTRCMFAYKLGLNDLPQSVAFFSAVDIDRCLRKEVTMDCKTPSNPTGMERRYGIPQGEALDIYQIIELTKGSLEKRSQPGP
T1 sequence (Q9UHN1 1-485 partner): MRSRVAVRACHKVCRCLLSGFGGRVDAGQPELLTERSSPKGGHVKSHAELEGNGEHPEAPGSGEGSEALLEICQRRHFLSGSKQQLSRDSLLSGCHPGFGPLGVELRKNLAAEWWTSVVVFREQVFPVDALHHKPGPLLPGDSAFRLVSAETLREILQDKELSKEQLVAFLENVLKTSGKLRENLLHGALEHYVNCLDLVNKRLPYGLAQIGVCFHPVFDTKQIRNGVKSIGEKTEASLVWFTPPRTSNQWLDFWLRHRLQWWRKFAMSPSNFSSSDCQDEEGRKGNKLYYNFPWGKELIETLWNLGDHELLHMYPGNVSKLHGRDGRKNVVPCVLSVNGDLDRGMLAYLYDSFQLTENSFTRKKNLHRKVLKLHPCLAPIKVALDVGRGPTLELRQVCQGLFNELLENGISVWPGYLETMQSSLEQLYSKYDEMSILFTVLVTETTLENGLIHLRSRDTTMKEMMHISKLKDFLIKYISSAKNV
Assay type: biochemical
Procedure: DNA Polymerization Assay to Monitor Effects on Human Wildtype POLγ and Four Disease-Causing Mutant Variants of Human POLγ.
The ability of small molecules to stimulate the polymerase activity of POLγ was analyzed in a quantitative fluorescence SYBR Green I assay with fluorescence intensity (FI) readout.
In the presence of dNTPs, wild type human POLγ and mutant derivatives thereof were incubated with single-stranded, circular M13mp18 ssDNA hybridized to a short DNA oligonucleotide that functions as a primer for initiation of DNA synthesis. POLγ and mutant derivatives thereof will extend the primer and use the M13mp18 molecule as a template to synthesize long stretches of double-stranded DNA. SYBR Green I, which is a double-stranded DNA-binding dye, was used to quantify formation of double-stranded DNA in the reaction. When bound to double-stranded DNA, SYBR Green I fluorescence increases by up to 100-fold.
The assay was performed in the 384-well plate format. Upon addition of compounds, changes in double-stranded DNA synthesis activity can be monitored by following effects on fluorescent intensity.
The reactions also contained the accessory POLγB subunit, and the human mitochondrial single-stranded DNA binding protein (mtSSB).
The DNA template mixture used in the assay contained 0.5 nM primed M13 mp18 ssDNA, 400 nM mtSSB, 0.1 mM Tris-HCl (pH 8.0), 0.1 mM dNTP, 10 mM MgCl2, 0.1 mg/mL BSA, 1 mM TCEP solution, and 0.02% Triton X-100. The DNA template mixture for the wild type protein contained either 100 μM dNTP, 1 μM dNTP, or 0.1 μM dNTP, designated in Table 2 as 100 μM, 1 μM, and 0.1 μM, respectfully.
Microplates with compounds (0.1 μL in each well) to be tested in the assay were prepared from 10 mM compound stocks in 100% DMSO, and equal amounts of DMSO without any compound were added to positive and negative control wells.
The protein mixture was dispensed (5 μL into each well) into compound plates and incubated at 37° C. for 15 minutes. After incubation, 5 μL of the DNA template mixture was dispensed into each well. The plates were then incubated at 37° C. for 2 hours.
During incubation, a combined stop buffer and detection reagent solution was prepared. The buffer contained 25 mM EDTA (pH 8.0), 0.02% Triton X-100, and SYBR Green I [Invitrogen] diluted 10,000× (for fluorescent readout). EDTA will stop the enzymatic reaction by chelating magnesium ions.

SMILES | AC50 [µM]
Cc1cc(S(=O)(=O)Nc2cccc(-c3ncco3)c2)c(C)cc1Cl [Example 17, 4-chloro-2,5-dimethyl-N-(3-(oxazol-2-yl)phenyl)benzenesulfonamide] | 0.6
Cc1ccc(C)c(S(=O)(=O)Nc2cccc(C(=O)N3CCCC[C@H]3C)c2)c1 [Example 5, (R)-2,5-dimethyl-N-(3-(2-methylpiperidine-1-carbonyl)phenyl)benzenesulfonamide] | 5
Cc1cc(S(=O)(=O)Nc2cccc(-c3nccn3C)c2)c(C)cc1Cl [Example 19, 4-chloro-2,5-dimethyl-N-(3-(1-methyl-1H-imidazol-2-yl)phenyl)benzenesulfonamide] | 0.8
Cc1cc(S(=O)(=O)Nc2cccc(C(=O)N3C[C@H](C)[C@@H](N)C3)c2)c(C)cc1Cl [Example 108, N-(3-((3R,4S)-3-amino-4-methylpyrrolidine-1-carbonyl)phenyl)-4-chloro-2,5-dimethylbenzenesulfonamide] | 24
Cc1cc(S(=O)(=O)N[C@@H]2CCCN(C(=O)[C@@H]3CCCN3C)C2)c(C)cc1Cl [Example 104, 4-chloro-2,5-dimethyl-N-((R)-1-(methyl-L-prolyl)piperidin-3-yl)benzenesulfonamide] | > 10
Cc1cc(S(=O)(=O)Nc2cccc(C(=O)N3CCCC[C@H]3C)c2)c(C)cc1Cl [Example 9, (R)-4-chloro-2,5-dimethyl-N-(3-(2-methylpiperidine-1-carbonyl)phenyl)benzenesulfonamide] | 2
Cc1cc(S(=O)(=O)Nc2cccc(C(=O)NCc3ccccc3)c2)c(C)cc1Cl [Example 11, N-benzyl-3-((4-chloro-2,5-dimethylphenyl)sulfonamido)benzamide] | 29
O=S(=O)(Nc1csc(-c2ccccc2)n1)c1cccc(C(F)(F)F)c1 [Example 151, N-(2-phenylthiazol-4-yl)-3-(trifluoromethyl)benzenesulfonamide] | > 10
Cc1cc(S(=O)(=O)Nc2cccc(C(=O)N3CCCC4(CC4)C3)c2)c(C)cc1Cl [Example 105, N-(3-(5-azaspiro[2.5]octane-5-carbonyl)phenyl)-4-chloro-2,5-dimethylbenzenesulfonamide] | > 10
Cc1cc(S(=O)(=O)Nc2cccc(-c3ncc(C#N)s3)c2)c(C)cc1Cl [Example 96, 4-chloro-N-(3-(5-cyanothiazol-2-yl)phenyl)-2,5-dimethylbenzenesulfonamide] | > 10
Cc1cc(S(=O)(=O)Nc2cccc(C(=O)N3CCc4cn[nH]c4C3)c2)c(C)cc1Cl [Example 107, 4-chloro-2,5-dimethyl-N-(3-(4,5,6,7-tetrahydro-1H-pyrazolo[3,4-c]pyridine-6-carbonyl)phenyl)benzenesulfonamide] | 1
O=S(=O)(Nc1csc(-c2ccccc2)n1)c1ccccc1Cl [Example 125, 2-chloro-N-(2-phenylthiazol-4-yl)benzenesulfonamide] | > 10
Cc1cc(S(=O)(=O)Nc2cccc(C(=O)N(C)c3ccccn3)c2)c(C)cc1Cl [Example 109, 3-((4-chloro-2,5-dimethylphenyl)sulfonamido)-N-methyl-N-(pyridin-2-yl)benzamide] | > 100
Cc1cc(Cl)ccc1S(=O)(=O)Nc1csc(-c2ccccc2)n1 [Example 135, 4-chloro-2-methyl-N-(2-phenylthiazol-4-yl)benzenesulfonamide] | 0.6
Cc1cc(S(=O)(=O)Nc2cccc(-c3ccn(C)n3)c2)c(C)cc1Cl [Example 18, 4-chloro-2,5-dimethyl-N-(3-(1-methyl-1H-pyrazol-3-yl)phenyl)benzenesulfonamide] | 1
Cc1ccc(C)c(S(=O)(=O)Nc2cccc(C(=O)N3CCOCC3C#N)c2)c1 (stereo not shown) [Example 7, N-(3-(3-cyanomorpholine-4-carbonyl)phenyl)-2,5-dimethylbenzenesulfonamide] | 1

Results, then the molecule that gave them:

AC50 [µM] | SMILES
1 | Cc1cc(F)ccc1S(=O)(=O)Nc1csc(-c2ccccc2)n1 [Example 124, 4-fluoro-2-methyl-N-(2-phenylthiazol-4-yl)benzenesulfonamide]
3 | CNC(=O)c1cnc(-c2cccc(NS(=O)(=O)c3cc(C)c(Cl)cc3C)c2)s1 [Example 93, 2-(3-((4-chloro-2,5-dimethylphenyl)sulfonamido)phenyl)-N-methylthiazole-5-carboxamide]
5 | Cc1cc(S(=O)(=O)Nc2cccc(C(=O)N(C)C)c2)c(C)cc1Cl [Example 12, 3-((4-chloro-2,5-dimethylphenyl)sulfonamido)-N,N-dimethylbenzamide]
0.5 | Cc1cc(S(=O)(=O)Nc2cccc(C(=O)N3CCC[C@H]3C)c2)c(C)cc1Cl [Example 10, (R)-4-chloro-2,5-dimethyl-N-(3-(2-methylpyrrolidine-1-carbonyl)phenyl)benzenesulfonamide]
1 | Cc1cc(S(=O)(=O)Nc2nsc(-c3ccccc3)n2)c(C)cc1Cl [Example 131, 4-chloro-2,5-dimethyl-N-(5-phenyl-1,2,4-thiadiazol-3-yl)benzenesulfonamide]
0.3 | Cc1ccc(C)c(S(=O)(=O)Nc2csc(-c3ccccc3)n2)c1 [Example 134, 2,5-dimethyl-N-(2-phenylthiazol-4-yl)benzenesulfonamide]
> 10 | O=S(=O)(Nc1csc(-c2ccccc2)n1)c1ccc2c(c1)CCO2 [Example 152, N-(2-phenylthiazol-4-yl)-2,3-dihydrobenzofuran-5-sulfonamide]
5 | Cc1ccc(C)c(S(=O)(=O)Nc2cccc(C(=O)N[C@@H](C)C3CC3)c2)c1 [Example 8, (S)-N-(1-cyclopropylethyl)-3-((2,5-dimethylphenyl)sulfonamido)benzamide]

Same assay, conditions: WT AC50 (μM) at 100 μM, 100 μM dNTP

AC50 [µM] | SMILES
> 10 | Cc1cc(S(=O)(=O)Nc2noc(-c3ccccc3)n2)c(C)cc1Cl [Example 142, 4-chloro-2,5-dimethyl-N-(5-phenyl-1,2,4-oxadiazol-3-yl)benzenesulfonamide]
